Data as given in BindingDB's records for doi:10.1016/s0960-894x(02)00831-4 (Currently Naeja Pharmaceutical, 2002).

Target: Cathepsin S (Homo sapiens, UniProt P25774)
Assay: Inhibition of recombinant human cathepsin S

Sequence of Cathepsin S (P25774 whole entry): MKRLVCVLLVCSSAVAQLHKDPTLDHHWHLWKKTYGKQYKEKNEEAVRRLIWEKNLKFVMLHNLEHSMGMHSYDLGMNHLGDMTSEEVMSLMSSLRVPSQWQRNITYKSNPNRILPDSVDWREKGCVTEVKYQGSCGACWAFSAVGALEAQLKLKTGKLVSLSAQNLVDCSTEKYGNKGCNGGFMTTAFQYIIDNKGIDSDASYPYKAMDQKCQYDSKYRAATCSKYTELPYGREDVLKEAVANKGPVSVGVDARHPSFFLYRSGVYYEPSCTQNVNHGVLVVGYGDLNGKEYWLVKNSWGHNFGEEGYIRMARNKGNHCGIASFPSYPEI

## O=C(N[C@@H](Cc1ccccc1)C(=O)N[C@@H]1C(=O)N[C@@H]1Oc1ccccc1)OCc1ccccc1 [[(S)-1-((3S,4R)-2-Oxo-4-phenoxy-azetidin-3-ylcarbamoyl)-2-phenyl-ethyl]-carbamic acid benzyl ester]
  IC50: < 0.1 nM
